Patent US10105365B2, “Solid antiviral dosage forms” (AbbVie Inc., priority 2014, dated 2018)

Assays:
[1] = Sink Conditions dissolution testing of Formulation C5-12; assay type: physicochemical; conditions: N = 6
Experimental: The release profiles of Formulation C5-12 of Example 1 were evaluated in a Sink Conditions dissolution study. The study was conducted in 900 mL of dissolution medium using a standard USP dissolution Apparatus 2 (paddle) operating at 100 RPM at 37±0.5° C. The dissolution medium was a 0.05 M sodium phosphate buffer pH 6.8 with 15 mM cTAB as a surfactant.

[2] = Human pharmacokinetic study, Example 4 Arm II (single dose, crossover); assay type: in vivo; conditions: for AUC(0-inf): read-out: AUC∞, geometric mean; for concentration at 24 h: read-out: C24, geometric mean
Experimental: Formulation C5-12 and a second formulation were tested in Arm II of the study. Adult male and female subjects (N=30 for combined Arm I and Arm II studies) in general good health were selected to participate in the study according to the selection criteria. Subjects meeting the selection criteria were randomly assigned to one of the Regimen sequences as shown below in Table 4-A.
Study drug was administered as provided below in Table 4-B.
Each study regimen was taken orally with approximately 240 mL of water approximately 30 minutes after the start of standardized breakfast. Study regimens were administered orally in the morning on Study Day 1 of each period. For Regimen A the evening dose of the Single Tablet was taken orally with approximately 240 mL of water approximately 30 minutes after the start of the evening snack. Serial blood samples for pharmacokinetic analysis were collected 72 hours after dosing in each period.
The data presented in Tables 4-C through 4-G are preliminary data and are subject to database lock and final data verification.

[3] = Human pharmacokinetic study, Example 4 Arm III (14-day multiple dose, steady state); assay type: in vivo; conditions: three Formulation C5-12 tablets daily for 14 days, non-fasting
[4] = Human pharmacokinetic study, Example 5 Arm I (single dose, replicated crossover); assay type: in vivo; conditions: single dose, non-fasting; for AUC(0-inf) / Cmax: both sexes, human, in vivo, oral
Experimental: (§1) A Phase 1, non-fasting, open-label, two-arm, four-period, randomized, crossover study was conducted to compare and characterize the pharmacokinetics of (i) Triple Tablet when co-administered with Single Tablet, and (ii) Formulation C5-12 as discussed below. Part 1 was a single dose, two-treatment, randomized, four period, two sequence replicated crossover study with 88 subjects. Doses in the four periods were separated by at least 10 days. Part 2 was a multiple-dose, two-treatment, two period, randomized crossover study with 66 subjects. Dosing in each period was 14 days and doses in the two periods were separated by at least 10 days.
(§2) Adult male and female subjects in general good health were selected to participate in the study according to the selection criteria. Subjects meeting the selection criteria were randomly assigned to one of the sequences of Regimens A and B (four sequences for Arm I and two sequences for Arm II) as shown below in Table 5-A.
(§3) Study drug was administered as provided below in Table 5-B.
(§4) Each study regimen was taken orally with approximately 240 mL of water approximately 30 minutes after the start of standardized breakfast. Study regimens were administered orally in the morning on Study Day 1 of each period. Serial blood samples for pharmacokinetic analysis were collected 72 hours after dosing in each period.
Tables 5-C, 5-D, 5-E, and 5-F below report the Arm I pharmacokinetic data for Formulation C5-12 (separately reported for each of Compounds 1, 2, 3, and 4). Table 5-G presents the results of a relative bioavailability and 90% confidence interval analysis of the pharmacokinetic data for Formulation C5-12 relative to the reference regimen. The data presented in Tables 5-C through 5-G are preliminary data and are subject to database lock and final data verification by the statistician.

[5] = Human pharmacokinetic study, Example 5 Arm II (multiple dose, crossover); assay type: in vivo; conditions: for AUC: read-out: AUC24, geometric mean; for concentration at 24 h: read-out: C24, geometric mean
Experimental: as §1, §2, §3, §4

[6] = assay type: physicochemical
Description: Moreover, hot melt extrusion, a method commonly used to prepare amorphous solid dispersions, often involves the use of high temperature to assist the formation of a melt that is composed of all components of the final solid dispersion.
This allows the preparation of smaller solid dosage forms (e.g., tablets) comprising all three drug substances.

[7] = Example 4 Arm II, single dose, non-fasting, Regimen E (C5-12): three Formulation C5-12 tablets in the morning, N = 13
[8] = both sexes, human, blood, oral, 3 Formulation C5-12 tablets, Example 4 Arm II, single dose, non-fasting, Regimen E (C5-12): three Formulation C5-12 tablets in the morning, N = 13
[9] = both sexes, human, blood, oral, Example 4 Arm II, single dose, non-fasting, Regimen A (reference regimen): two Triple Tablets + one Single Tablet morning, one Single Tablet evening, N = 13
[10] = Regimen A (C5-12): three film-coated Formulation C5-12 tablets, N = 172
[11] = Regimen B (reference regimen): two Triple Tablets + one Single Tablet morning, one Single Tablet evening, N = 171
[12] = Example 5 Arm II, multiple dose 14 days, non-fasting, Regimen B (reference regimen): two Triple Tablets + one Single Tablet morning, one Single Tablet evening, N = 63
[13] = both sexes, human, blood, oral, 3 film-coated Formulation C5-12 tablets daily, Example 5 Arm II, multiple dose 14 days, non-fasting, Regimen A (C5-12): three film-coated Formulation C5-12 tablets daily, N = 63
[14] = both sexes, human, blood, oral, Example 5 Arm II, multiple dose 14 days, non-fasting, Regimen B (reference regimen): two Triple Tablets + one Single Tablet morning, one Single Tablet evening, N = 63

Question: With `CC(C)c1nc(CN(C)C(=O)N[C@H](C(=O)N[C@@H](Cc2ccccc2)C[C@H](O)[C@H](Cc2ccccc2)NC(=O)OCc2cncs2)C(C)C)cs1` [Compound 3, 1,3-thiazol-5-ylmethyl N-[(2S,3S,5S)-3-hydroxy-5-[(2S)-3-methyl-2-{[methyl({[2-(propan-2-yl)-1,3-thiazol-4-yl]methyl})carbamoyl]-amino}butanamido]-1,6-diphenylhexan-2-yl]carbamate, reference compound] as the molecule, how does the “% Released” value ([1]; 1 hour, 900 mL 0.05 M sodium phosphate buffer pH 6.8, 15 mM cTAB, USP Apparatus 2, 100 RPM, 37 °C) read?
Answer: 58%

Question: And the “% Released” value ([1]; 4 hours, pH 6.8 buffer, 15 mM cTAB)?
Answer: 99%

Question: What about the “% Released” value ([1]; 6 hours, pH 6.8 buffer, 15 mM cTAB) of the same molecule?
Answer: 100%

Question: And the “% Released” value ([1]; 8 hours, pH 6.8 buffer, 15 mM cTAB)?
Answer: 103%

Question: What about the “% Released” value ([1]; 12 hours, pH 6.8 buffer, 15 mM cTAB) of the same molecule?
Answer: 102%

Question: And the “% Released” value ([1]; 16 hours, pH 6.8 buffer, 15 mM cTAB)?
Answer: 100%

Question: What about the “Cmax, geometric mean” value ([2]; Example 4 Arm II, single dose, non-fasting, Regimen A (reference regimen): two Triple Tablets + one Single Tablet morning, one Single Tablet evening, N = 13) of the same molecule?
Answer: 1170 ng/mL

Question: What about the “AUCt, geometric mean” value [2, 7] of the same molecule?
Answer: 8160 ng·h/mL

Question: What about the “Cmax, geometric mean” value [2, 7] of the same molecule?
Answer: 1160 ng/mL

Question: And the t1/2 [2, 7]?
Answer: 4.2 h

Question: And the AUC(0-inf) [2, 8]?
Answer: 8270 ng·h/mL

Question: What about the concentration at 24 h [2, 8] of the same molecule?
Answer: 38.8 ng/mL

Question: And the Tmax ([2]; both sexes, human, blood, oral, 3 Formulation C5-12 tablets, Example 4 Arm II, single dose, non-fasting, Regimen E (C5-12): three Formulation C5-12 tablets in the morning, N = 13, read-out: Tmax)?
Answer: 4.9 h

Question: What about the half-life [2, 9] of the same molecule?
Answer: 4.9 h

Question: And the concentration at 24 h [2, 9]?
Answer: 37 ng/mL

Question: And the AUC(0-t) ([2]; both sexes, human, in vivo, Example 4 Arm II, single dose, non-fasting, Regimen A (reference regimen): two Triple Tablets + one Single Tablet morning, one Single Tablet evening, N = 13, read-out: AUCt, geometric mean)?
Answer: 7710 ng·h/mL

Question: And the AUC(0-inf) ([2]; both sexes, human, in vivo, Example 4 Arm II, single dose, non-fasting, Regimen A (reference regimen): two Triple Tablets + one Single Tablet morning, one Single Tablet evening, N = 13)?
Answer: 7900 ng·h/mL

Question: And the “C24, arithmetic mean, % CV” value ([2]; both, human, in vivo, 24 h)?
Answer: (46.3, 62) ng/mL

Question: And the Tmax ([3]; human, in vivo, oral, 3 Formulation C5-12 tablets daily, Day 1, N = 14)?
Answer: 5.4 h

Question: What about the concentration at 24 h ([3]; human, in vivo, oral, 3 Formulation C5-12 tablets daily, Day 1, N = 14, read-out: C24, geometric mean) of the same molecule?
Answer: 34.7 ng/mL

Question: What about the Tmax ([3]; human, in vivo, oral, 3 Formulation C5-12 tablets daily, Day 14, N = 14) of the same molecule?
Answer: 4.7 h

Question: What about the AUC ([3]; human, in vivo, oral, 3 Formulation C5-12 tablets daily, Day 14, N = 14, read-out: AUC24, geometric mean) of the same molecule?
Answer: 10700 ng·h/mL

Question: What about the concentration at 24 h ([3]; human, in vivo, oral, 3 Formulation C5-12 tablets daily, Day 14, N = 14, read-out: C24, geometric mean) of the same molecule?
Answer: 40 ng/mL

Question: And the Cmax ([3]; human, in vivo, oral, 3 Formulation C5-12 tablets daily, Day 14, N = 14, read-out: Cmax, geometric mean)?
Answer: 1430 ng/mL

Question: What about the “AUC24, geometric mean” value ([3]; Day 1, N = 14) of the same molecule?
Answer: 7230 ng·h/mL

Question: And the “Cmax, geometric mean” value ([3]; Day 1, N = 14)?
Answer: 921 ng/mL

Question: What about the t1/2 ([3]; Day 14, N = 14) of the same molecule?
Answer: 4.0 h

Question: And the β ([3]; Day 14, N = 14)?
Answer: 0.174 h⁻¹

Question: What about the AUC(0-inf) ([4]; 3 film-coated Formulation C5-12 tablets, Regimen A (C5-12): three film-coated Formulation C5-12 tablets, N = 172, read-out: AUC∞, geometric mean) of the same molecule?
Answer: 8090 ng·h/mL

Question: And the Cmax ([4]; 3 film-coated Formulation C5-12 tablets, Regimen A (C5-12): three film-coated Formulation C5-12 tablets, N = 172, read-out: Cmax, geometric mean)?
Answer: 1130 ng/mL

Question: And the AUC(0-inf) ([4]; Regimen B (reference regimen): two Triple Tablets + one Single Tablet morning, one Single Tablet evening, N = 171, read-out: AUC∞, geometric mean)?
Answer: 8750 ng·h/mL

Question: What about the Cmax ([4]; Regimen B (reference regimen): two Triple Tablets + one Single Tablet morning, one Single Tablet evening, N = 171, read-out: Cmax, geometric mean) of the same molecule?
Answer: 1430 ng/mL

Question: And the “AUCt, geometric mean” value [4, 10]?
Answer: 7450 ng·h/mL

Question: What about the “Tmax, first value (geometric mean)” value [4, 10] of the same molecule?
Answer: 4.0 h

Question: What about the t1/2 [4, 10] of the same molecule?
Answer: 4.52 h

Question: And the “AUCt, geometric mean” value [4, 11]?
Answer: 8610 ng·h/mL

Question: What about the t1/2 [4, 11] of the same molecule?
Answer: 4.47 h

Question: And the “Cmax, arithmetic mean, % CV” value [5, 12]?
Answer: (1800,44) ng/mL

Question: What about the “Cmax, geometric mean” value [5, 12] of the same molecule?
Answer: 1680 ng/mL

Question: What about the half-life [5, 13] of the same molecule?
Answer: 4.6 h

Question: What about the AUC [5, 13] of the same molecule?
Answer: 8670 ng·h/mL

Question: What about the concentration at 24 h [5, 13] of the same molecule?
Answer: 36.2 ng/mL

Question: What about the Cmax ([5]; both sexes, human, blood, oral, 3 film-coated Formulation C5-12 tablets daily, Example 5 Arm II, multiple dose 14 days, non-fasting, Regimen A (C5-12): three film-coated Formulation C5-12 tablets daily, N = 63, read-out: Cmax, geometric mean) of the same molecule?
Answer: 1340 ng/mL

Question: What about the AUC [5, 14] of the same molecule?
Answer: 9580 ng·h/mL

Question: What about the concentration at 24 h [5, 14] of the same molecule?
Answer: 35.1 ng/mL

Question: And the “Cmax,ss lower than Cmax,ss for the reference regimen” value ([5]; both, human, in vivo, 14 days)?
Answer: 21%

Question: What about the “Exposures (C24,ss and AUC24,ss) versus the reference regimen” value ([5]; in vivo) of the same molecule?
Answer: bioequivalent

Question: And the “Degradation in hot melt extrusion” value [6]?
Answer: well within the acceptable levels

Question: And the “Temperature beyond which degradation can reach unacceptable levels” value [6]?
Answer: > 140 °C
